Measurements as given in patent publication US20070104799A1, “Treatment of chronic kidney disease (CKD) subjects using lanthanum compounds” (SHIRE INT[…] B.V., priority 2005, published 2007).
Like-named read-outs stand apart in the source and are kept apart here.

Tested on: Crl:CD (SD) Br (VAFplus) female rats with spontaneous renal pathology, including mineralization
Settings: 104 weeks; for rats with evidence of pelvic/papillary mineralization / rats with evidence of transitional cell hyperplasia in kidneys: n=60; for rats with evidence of pelvic/papillary mineralization: undosed rats approx. 50% (n=120); for rats with evidence of transitional cell hyperplasia in kidneys: undosed rats approx. 63% (n=120)
Procedure: Crl:CD (SD) Br (VAFplus) female rats (available from Charles River Laboratories in Wilmington, Mass.) were orally dosed once daily with 0, 100, 500, or 1500 mg (salt)/kg of lanthanum carbonate for 104 weeks. Crl:CD (SD) Br (VAFplus) female rats develop spontaneous renal pathology, including mineralization, as they age. At week 105, the pathological examination of the kidneys of these rats was performed.
Transitional cell hyperplasia is a response to trauma caused by the unnatural presence of mineral in the tissue, thus mineralization and hyperplasia are closely linked.

O=C([O-])[O-].O=C([O-])[O-].O=C([O-])[O-].[La+3].[La+3] [lanthanum carbonate]
rats with evidence of pelvic/papillary mineralization (100 mg (salt)/kg/day oral): ~35%
rats with evidence of transitional cell hyperplasia in kidneys (100 mg (salt)/kg/day oral): ~48%
rats with evidence of pelvic/papillary mineralization (500 mg (salt)/kg/day oral): ~5%
rats with evidence of transitional cell hyperplasia in kidneys (500 mg (salt)/kg/day oral): ~23%
rats with evidence of pelvic/papillary mineralization (1500 mg (salt)/kg/day oral): ~1.7%
rats with evidence of transitional cell hyperplasia in kidneys (1500 mg (salt)/kg/day oral): ~7%
effect on renal calcification (study conclusion) (oral administration, 100-1500 mg (salt)/kg/day): reduces renal calcification
